Measured values: the SangsterLogP compilation

Experiment: method code SF-AS, from PMID: 8295915

logP	SMILES
2.72	CCNc1nc(C)c(C(=O)CCN(CC)CC)s1
0.82	Cc1nc(N)sc1C(=O)CCN1CCOCC1
1.86	CNc1nc(C)c(C(=O)CCN2CCCC2)s1
1.58	CNc1nc(C)c(C(=O)CCN(C)C)s1
1.74	Cc1nc(N)sc1C(=O)CCN1CCCC1
2.21	CNc1nc(C)c(C(=O)CCN2CCCCC2)s1
1.47	Cc1nc(N)sc1C(=O)CCN(C)C
0.95	CNc1nc(C)c(C(=O)CCN2CCOCC2)s1
2.66	CCNc1nc(C)c(C(=O)CCN2CCCCC2)s1
1.43	CCNc1nc(C)c(C(=O)CCN2CCOCC2)s1
2.21	CCNc1nc(C)c(C(=O)CCN(C)C)s1
1.76	CCN(CC)CCC(=O)c1sc(N)nc1C
2.13	Cc1nc(N)sc1C(=O)CCN1CCCCC1
